This note sets out measurements from PubChem BioAssay AID1996.

Values after ≈ are worked out from the molar mass of the structure shown. A value given as a limit tells only on which side of the number the result lay.

For orientation: kinetic solubility means solubility judged after dilution from a stock solution rather than from solid.

For this data set the following is noted: buffer; pH 7.4; 200.0 µM.
Consider `CC(=O)N(Cc1ccccc1)c1c(N)nc(N)[nH]c1=O`, for which the kinetic solubility was above 41 µg/mL.

Regarding `O=C(CCc1nc(-c2ccccc2Cl)no1)NCC1CCCO1` (configuration not stated), the solubility (kinetic) was 47.7 µg/mL (≈ 142 µM).

`COc1ccc(NC(=O)Nc2ccc3nonc3c2)cc1` gave a kinetic solubility of 5.3 µg/mL (≈ 18.6 µM).

For `CCOc1cc(C(=O)OCc2cc(=O)n3c(C)csc3n2)ccc1OC`, the solubility (kinetic) is 3.1 µg/mL (≈ 8.28 µM).

Take `Cc1cccc(Cn2cnc3c(sc4nc(C)cc(C)c43)c2=O)c1`: the kinetic solubility is below 0.2 µg/mL.

Turning to `Cc1cc(NC(=O)Cn2cnc3sccc3c2=O)no1`, the solubility (kinetic) is 7.8 µg/mL (≈ 26.9 µM).

`CCCCc1ccc(NC(=S)N2CCN(C(=O)OCC)CC2)cc1`: the kinetic solubility was 2.2 µg/mL (≈ 6.29 µM).

In turn, `CCOC(=O)c1c(C)n(CC)c2c1cc(O)c1ccccc12` yielded a kinetic solubility below 0.6 µg/mL.

`Cc1cccc(C(=O)NCC(c2ccco2)N2CCc3ccccc32)c1` (configuration not stated) displayed a solubility (kinetic) of 8.2 µg/mL (≈ 23.7 µM).

On to `CCOC(=O)c1cc2cc(OCc3ccccc3)ccc2nc1C`, for which the kinetic solubility was below 0.7 µg/mL.

`Cc1ccc(N2C(=O)N(c3ccc(C)cc3)C3CS(=O)(=O)CC32)cc1` (configuration not stated) returned a solubility (kinetic) of 12.9 µg/mL (≈ 36.2 µM).

In turn, `CCN(C(=O)CSc1cccc[n+]1[O-])c1ccccc1` returned a solubility (kinetic) above 43.3 µg/mL.

For the compound `NC(=O)C1CCCN(CC(=O)N2CCN(c3ccccc3)CC2)C1` (configuration not stated), the solubility (kinetic) stood at 48.4 µg/mL (≈ 146 µM).

The compound `CCN(CC)C(=O)c1cccc(NC(=O)C2=COCCO2)c1` returned a kinetic solubility above 45.7 µg/mL.

With `NC(=O)CCN1CCC(c2nc3ccccc3s2)CC1`, the solubility (kinetic) is 35.3 µg/mL (≈ 122 µM).

Compound `Cc1nc(SCCOc2ccccc2F)[nH]c(=O)c1Cc1ccccc1` displayed a solubility (kinetic) of 0.6 µg/mL (≈ 1.62 µM).

Consider `Nc1cc(Cl)ccc1Nc1ccncc1`, for which the solubility (kinetic) was above 33 µg/mL.

`CCNC(=O)COC(=O)CCNC(=O)c1ccc(Cl)cc1`: the solubility (kinetic) was above 46.9 µg/mL.

The compound `CCOC(=O)C1=C(C)C(c2ccc(OC)cc2)NC(=O)N1` (configuration not stated) yielded a kinetic solubility above 43.5 µg/mL.

Consider `COC(=O)c1nn(-c2cccc(Cl)c2)cc(OC)c1=O`, for which the kinetic solubility was above 44.2 µg/mL.

As for `COCCn1c(C)cc(O)c(C(=O)Nc2cccc(Cl)c2)c1=O`, the solubility (kinetic) is below 0.4 µg/mL.

Compound `COc1ccc(CNC(=O)CSc2nc3ccccc3n2C(C)=O)cc1` yielded a kinetic solubility of 21.2 µg/mL (≈ 57.4 µM).

The compound `CCOc1cc(N2CCOCC2)c(OCC)cc1NC(=O)Cn1cnnn1` displayed a kinetic solubility above 56.5 µg/mL.

In the case of `Nc1c(C(=O)OCC(=O)Nc2cccc([N+](=O)[O-])c2)[nH]c(=O)[nH]c1=O`, the kinetic solubility was determined as 51.5 µg/mL (≈ 147 µM).

With `O=[N+]([O-])c1ccc(O)c(C(C#Cc2ccccc2)N2CCOCC2)c1` (configuration not stated), the kinetic solubility came out at 12.9 µg/mL (≈ 38.1 µM).

`Cc1noc(C)c1C(=O)Nc1nccs1`: the solubility (kinetic) is above 33.5 µg/mL.

`O=C1NC(=S)NC(=O)C1C1CCCCC1` registered a solubility (kinetic) of 30.1 µg/mL (≈ 133 µM).

In turn, `NC(=O)c1ccccc1NC(=O)COC(=O)CSCc1cccc(Cl)c1` came in with a solubility (kinetic) of 10.8 µg/mL (≈ 27.5 µM).

As for `CCCc1cc(=O)[nH]c(SCC(=O)NCc2ccc3c(c2)OCO3)n1`, the solubility (kinetic) is above 54.2 µg/mL.

`COc1cc(OC)cc(C(=O)Nc2cccc3nc(C)ccc23)c1` returned a solubility (kinetic) of 2.9 µg/mL (≈ 9 µM).

`CC(C)c1ccccc1NC(=O)Nc1ccc(F)cc1F` registered a kinetic solubility of 2.7 µg/mL (≈ 9.3 µM).

Consider `CC(Sc1nncs1)C(=O)Nc1ccc2c(c1)OCCO2` (configuration not stated), for which the kinetic solubility is above 48.5 µg/mL.

`CCCn1c(=O)c2[nH]c(C3CCCC3)nc2n(CCC)c1=O` registered a solubility (kinetic) of 3.1 µg/mL (≈ 10.2 µM).

In the case of `CC(=O)N1C(=O)NC(c2ccccc2)=C([N+](=O)[O-])C1c1ccccc1` (configuration not stated), the kinetic solubility worked out at 43.2 µg/mL (≈ 128 µM).

Regarding `O=C(Nc1ccc(OC(F)F)c(Cl)c1)c1ccccn1`, the solubility (kinetic) worked out at 1.4 µg/mL (≈ 4.69 µM).

`O=C1NC(c2ccc(Br)cc2)Nc2ccccc21` (configuration not stated) showed a kinetic solubility of 9 µg/mL (≈ 29.7 µM).

Consider `CN(c1ccccc1)c1nc(N)c([N+](=O)[O-])c(NCc2ccccc2)n1`, for which the kinetic solubility was below 0.1 µg/mL.

In the case of `N#CC1=C(N)N(c2ccc(Cl)c(Cl)c2)C(=O)C1`, the solubility (kinetic) was above 40.2 µg/mL.

Take `Cn1c(NN)nc2ccccc2c1=O`: the solubility (kinetic) is above 28.5 µg/mL.

Take `Cc1cc(N2CCOCC2)nc2ccc(NC(=S)N3CCCCC3C)cc12` (configuration not stated): the kinetic solubility was 41.5 µg/mL (≈ 108 µM).

In the case of `C[C@H](NC(=O)c1ccccc1)C(=O)N1CCN(Cc2ccc3c(c2)OCO3)CC1`, the solubility (kinetic) was above 59.3 µg/mL.

For `Cc1cc(=O)oc2cc(OCC(=O)Nc3ccccc3C(=O)O)ccc12`, the solubility (kinetic) amounted to 52.9 µg/mL (≈ 150 µM).

In the case of `Cn1c(Nc2ccccc2)nc2ccccc21`, the kinetic solubility came out at 25.9 µg/mL (≈ 116 µM).

`O=C(NCc1ccccn1)Nc1cc(Cl)cc(Cl)c1` had a solubility (kinetic) of 40.8 µg/mL (≈ 138 µM).

`COc1ccc(S(=O)(=O)N2CN3CCN(C3)C2)cc1`: the solubility (kinetic) is above 42.5 µg/mL.

`CCc1ccccc1NC(=O)CCS(=O)(=O)c1ccc(C)cc1`: the solubility (kinetic) was above 49.7 µg/mL.

`CCOC(=O)c1cc(C(C)(C)C)n(CCCN2CCOCC2)c1C` showed a kinetic solubility of 47.5 µg/mL (≈ 141 µM).

Compound `Oc1ccccc1C(=S)N1CCCC1` returned a kinetic solubility above 31.1 µg/mL.

Regarding `Cc1onc(-c2c(Cl)cccc2Cl)c1C(=O)c1ccccc1`, the solubility (kinetic) is 5.1 µg/mL (≈ 15.4 µM).

As for `O=C(CS(=O)CC(=O)Nc1cccnc1)Nc1ccc(F)cc1` (configuration not stated), the kinetic solubility is above 50.3 µg/mL.

Take `O=C(Nc1ncccc1O)c1ccc2c(c1)OCO2`: the kinetic solubility was above 38.7 µg/mL.

For `COc1ccc(C(=S)N2CCOCC2)cc1OC(=O)c1ccccc1`, the kinetic solubility was determined as 23.6 µg/mL (≈ 66 µM).
